Data on one compound can be found in patent US9353082B2, “Pharmaceutical compounds” (BIAL—PORTELA & CA, S.A., priority 2008, dated 2016).

The test system of one test is carboxylesterase (CE). Put plainly: Carboxylesterase (CE) activity in rat liver microsomes (LVms), p-nitrophenyl acetate. The test is classed as biochemical. To be noted: 10 uM compound, read 10 min after substrate, remaining CE activity. The protocol: (§1) FAAH inhibition was determined as described above. Inhibition of monoacylglycerol lipase (MAGL) and carboxylesterase (CE) was performed according to the protocols described below. The controls for both in vitro and in vivo were the reaction mix minus the test compounds. Therefore, a low value in Table 2 below for the test compounds indicates a strong inhibitor.
CE activity measurement is based on the formation of p-nitrophenol from p-nitrophenyl acetate. Briefly, in 96-well plates 8 μg/ml of rat or mouse liver microsomes (LVms) were incubated with 10 μM FAAH inhibitors for 15 min and then the substrate, p-nitrophenyl acetate, was added to a final concentration of 1 mM. The plate was read at 405 nm 10 min after substrate addition for the appearance of p-nitrophenol using a spectrophotometer. The carboxylesterase activity in microsome extracts without inhibitor added were set at 100% as control and the remaining CE activities after incubation with inhibitors were calculated relative to the control.
On the technique in general: Microsomes from liver hold many membrane-bound enzymes, among them those of drug oxidation.

Another test deals with T1, FAAH (Rattus norvegicus, UniProt P97612).
T1 construct: Frozen brains (without cerebellum) from Wistar rats were used; from tissue; host or cells: Wistar rat brain (without cerebellum), washed membrane pellets
T1 sequence (P97612 1-579): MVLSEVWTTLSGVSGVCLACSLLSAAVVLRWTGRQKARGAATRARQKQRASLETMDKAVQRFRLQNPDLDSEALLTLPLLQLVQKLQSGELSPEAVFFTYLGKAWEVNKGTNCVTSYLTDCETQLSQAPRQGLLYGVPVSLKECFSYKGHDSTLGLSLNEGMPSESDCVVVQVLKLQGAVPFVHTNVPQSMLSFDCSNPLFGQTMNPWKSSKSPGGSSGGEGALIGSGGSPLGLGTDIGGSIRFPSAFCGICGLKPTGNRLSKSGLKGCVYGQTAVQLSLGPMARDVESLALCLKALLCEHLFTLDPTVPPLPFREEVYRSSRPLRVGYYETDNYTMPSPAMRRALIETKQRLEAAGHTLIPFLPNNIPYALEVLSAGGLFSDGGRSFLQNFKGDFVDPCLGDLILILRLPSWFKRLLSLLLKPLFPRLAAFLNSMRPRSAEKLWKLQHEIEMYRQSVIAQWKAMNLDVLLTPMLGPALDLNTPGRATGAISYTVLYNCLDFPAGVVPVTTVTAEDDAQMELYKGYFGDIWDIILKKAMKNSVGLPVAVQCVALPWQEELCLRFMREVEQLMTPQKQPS
Put plainly: In vitro FAAH activity in rat brain membranes, 3H-AEA substrate, % of control. The test is classed as biochemical, Wistar rats. To be noted: low value = strong inhibitor. In short, it runs like this: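 FAAH activity measured as 3H-ethanolamine released from 2 μM [3H]AEA over 10 min by rat brain membrane preparation, after 15 min 37 °C preincubation with test compound at 10 or 0.1 μM. Charcoal-separated supernatant scintillation-counted; values expressed as % of control minus no-protein blank.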

The target in test [1] is T2, monoacylglycerol lipase (MAGL) (Rattus norvegicus, UniProt Q8R431).
T2 construct: cerebella cytosol (CRBcyt) fractions, previously obtained from adult WISTAR rats; from tissue; host or cells: adult Wistar rat cerebella, cytosol fraction
T2 sequence (Q8R431 1-303): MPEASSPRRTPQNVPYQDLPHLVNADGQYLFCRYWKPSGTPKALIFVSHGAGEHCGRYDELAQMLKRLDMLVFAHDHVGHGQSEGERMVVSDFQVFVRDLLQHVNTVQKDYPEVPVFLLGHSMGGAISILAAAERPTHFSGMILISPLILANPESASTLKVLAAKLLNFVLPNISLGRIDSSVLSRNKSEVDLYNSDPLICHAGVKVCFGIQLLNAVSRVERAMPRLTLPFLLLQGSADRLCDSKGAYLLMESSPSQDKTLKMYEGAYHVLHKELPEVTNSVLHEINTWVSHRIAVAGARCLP
Put plainly: MAGL activity in rat cerebella cytosol (CRBcyt), hydrolysis of [3H] 2-OG. Format: biochemical, WISTAR rats. To be noted: 12.5 uM compound, remaining MAGL activity. As to the method:
as §1
MAGL activity measurement was based on rate of hydrolysis of [^3H] 2-OG (glycerol labeled) as substrate. Briefly, cerebella cytosol (CRBcyt) fractions, previously obtained from adult WISTAR rats, were diluted to appropriate assay protein concentrations in Tris-HCl buffer (10 mM, pH 7.2) containing 1 mM EDTA, and were added to assay tubes containing test compound. Blanks contained assay buffer instead of cytosol samples were used as control. […] The final assay contained 0.125% w v^−1 fatty acid-free BSA. After the incubation phase, reactions were stopped by adding 400 μL chloroform:methanol (1/1 v v^−1), vortex mixing the tubes two times and placing them on ice. Phases were separated by centrifugation and 200 μL aliquots of the methanol/buffer phase were taken and tritium content assayed by liquid scintillation spectroscopy with quench correction.

`COc1cccc(-c2cn(C(=O)N3CCCc4ccccc43)cn2)c1` [Compound 39, (3,4-dihydroquinolin-1(2H)-yl)(4-(3-methoxyphenyl)-1H-imidazol-1-yl)methanone]: in the test with carboxylesterase (CE), the “CE Rat LVms 10 uM 10 min” value was 94.7 % of control. In addition, the “FAAH 10 uM” value on FAAH (10 uM compound, rat brain membranes, 100 = no measurable inhibition) is recorded as 16 % of control. In addition, the “In Vitro FAAH activity, 10 uM” value on FAAH (10 uM test compound) is recorded as 16 % of control. Also, in test [1], the “MAGL Rat CRBcyto 12.5 uM 8 min” value is recorded as 87 % of control.
